Test results from patent publication US20220089568A1 (Janssen Biotech, Inc., priority 2019, published 2022).

How the values were obtained:
[1] = target: T1, human DHODH (Homo sapiens, UniProt Q02127); assay: DHODH Enzymatic Assay; format: biochemical; conditions: purified human DHODH; DCIP absorbance, end-point mode
T1 construct: purchased Proteros PR-0044
Outline: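 Purified human DHODH activity read as absorbance of DCIP, the terminal electron acceptor, in […] pH 7.5, 150 mM NaCl, 0.5 mM EDTA, 0.1% Triton X-100. Reaction started with a substrate mix of 20 mM DHO, 5 mM CoQ6 and 1 mM DCIP in assay buffer.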

[2] = tested on: MOLM-13 cells; assay: MOLM-13 Cellular Assay; format: cell-based; conditions: Homo sapiens, 72 hours exposure, cell viability by CellTiter-Glo
Experimental: The day prior to assay set-up, cells were pelleted, resuspended in fresh media, counted, and cells were plated at 0.4×10^6 cell/mL in a T150 flask. […] Cells were exposed to different concentrations of test compounds at 37° C., 5% CO2 for 72 hours immediately after seeding.

T1 sequence (Q02127 whole entry): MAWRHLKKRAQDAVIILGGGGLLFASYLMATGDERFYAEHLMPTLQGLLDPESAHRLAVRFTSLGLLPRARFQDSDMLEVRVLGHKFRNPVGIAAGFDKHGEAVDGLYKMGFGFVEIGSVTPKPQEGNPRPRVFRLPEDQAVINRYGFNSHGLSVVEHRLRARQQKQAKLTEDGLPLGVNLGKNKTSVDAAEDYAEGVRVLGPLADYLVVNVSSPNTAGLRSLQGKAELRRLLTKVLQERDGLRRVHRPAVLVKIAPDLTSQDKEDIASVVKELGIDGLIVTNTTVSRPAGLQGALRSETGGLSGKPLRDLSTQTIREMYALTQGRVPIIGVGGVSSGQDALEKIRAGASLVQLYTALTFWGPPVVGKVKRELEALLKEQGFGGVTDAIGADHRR

Row | EC50 [1] [nM] | EC50 [2] [nM] | SMILES
1 | 1.5 | 445 | CCn1c(CO)nn(-c2nc(O[C@@H](C)C(F)(F)F)c(C(=O)Nc3c(Cl)c[nH]c(=O)c3Cl)cc2F)c1=O [Example 22, (S)-N-(3,5-Dichloro-2-oxo-1H-pyridin-4-yl)-6-[4-ethyl-3-(hydroxymethyl)-5-oxo-1,2,4-triazol-1-yl]-5-fluoro-2-[(1S)-2,2,2-trifluoro-1-methyl-ethoxy]pyridine-3-carboxamide]
2 | < 1.69 | 0.5 | CCn1c(CO)nn(-c2nc(O[C@@H](C)C(F)(F)F)c(C(=O)Nc3cc(C)ccc3F)cc2F)c1=O [Example 11, (S)-6-(4-Ethyl-3-(hydroxymethyl)-5-oxo-4,5-dihydro-1H-1,2,4-triazol-1-yl)-5-fluoro-N-(2-fluoro-5-methylphenyl)-2-((1,1,1-trifluoropropan-2-yl)oxy)nicotinamide]
3 | 2.09 | 1.23 | CCn1c(CO)nn(-c2nc(O[C@@H](C)C(F)(F)F)c(C(=O)Nc3c[nH]nc3C(F)(F)F)cc2F)c1=O [Example 95, 6-[4-Ethyl-3-(hydroxymethyl)-5-oxo-1,2,4-triazol-1-yl]-5-fluoro-2-[(1S)-2,2,2-trifluoro-1-methyl-ethoxy]-N-[3-(trifluoromethyl)-1H-pyrazol-4-yl]pyridine-3-carboxamide]
4 | 1.93 | 0.345 | CCn1c(CO)nn(-c2nc(O[C@@H](C)C(F)(F)F)c(C(=O)Nc3c(C)n[nH]c3C(F)(F)F)cc2F)c1=O [Example 111, 6-[4-Ethyl-3-(hydroxymethyl)-5-oxo-1,2,4-triazol-1-yl]-5-fluoro-N-[3-methyl-5-(trifluoromethyl)-1H-pyrazol-4-yl]-2-[(1S)-2,2,2-trifluoro-1-methyl-ethoxy]pyridine-3-carboxamide]
5 | 3.1 | 2.5 | CCn1c(CO)nn(-c2nc(O[C@@H](C)C(F)(F)F)c(C(=O)Nc3cnsc3Br)cc2F)c1=O [Example 15, (S)-N-(5-Bromoisothiazol-4-yl)-6-(4-ethyl-3-(hydroxymethyl)-5-oxo-4,5-dihydro-1H-1,2,4-triazol-1-yl)-5-fluoro-2-((1,1,1-trifluoropropan-2-yl)oxy)nicotinamide]
6 | 4.6 | 5.2 | CCn1c(CO)nn(-c2nc(O[C@@H](C)C(F)(F)F)c(C(=O)Nc3nc(OC)ccc3F)cc2F)c1=O [Example 56, (S)-6-(4-Ethyl-3-(hydroxymethyl)-5-oxo-4,5-dihydro-1H-1,2,4-triazol-1-yl)-5-fluoro-N-(3-fluoro-6-methoxypyridin-2-yl)-2-((1,1,1-trifluoropropan-2-yl)oxy)nicotinamide]
7 | 142 | > 100 | CCn1c(CO)nn(-c2nc(O[C@@H](C)C(F)(F)F)c(C(=O)Nc3conc3C)cc2F)c1=O [Example 45, (S)-6-(4-Ethyl-3-(hydroxymethyl)-5-oxo-4,5-dihydro-1H-1,2,4-triazol-1-yl)-5-fluoro-N-(3-methylisoxazol-4-yl)-2-((1,1,1-trifluoropropan-2-yl)oxy)nicotinamide]
8 | 31.8 | 18.5 | CCn1c(CO)nn(-c2nc(OC3CCOC3)c(C(=O)Nc3c(F)cccc3Cl)cc2F)c1=O (racemic) [Example 9, Racemic-N-(2-Chloro-6-fluorophenyl)-6-(4-ethyl-3-(hydroxymethyl)-5-oxo-4,5-dihydro-1H-1,2,4-triazol-1-yl)-5-fluoro-2-((tetrahydrofuran-3-yl)oxy)nicotinamide]
9 | 568 | > 100 | CCn1c(CO)nn(-c2nc(O[C@@H](C)C(F)(F)F)c(C(=O)Nc3cc(C(F)F)ncc3F)cc2F)c1=O [Example 81, N-[2-(Difluoromethyl)-5-fluoro-4-pyridyl]-6-[4-ethyl-3-(hydroxymethyl)-5-oxo-1,2,4-triazol-1-yl]-5-fluoro-2-[(1S)-2,2,2-trifluoro-1-methyl-ethoxy]pyridine-3-carboxamide]
10 | 13 | 68.9 | CCn1c(CO)nn(-c2nc(O[C@@H](C)C(F)(F)F)c(C(=O)Nc3cc(Cl)cnc3C)cc2F)c1=O [Example 52]
11 | 23.1 | 14.9 | Cc1ccnc(Cl)c1NC(=O)c1cc(F)c(-n2nc(CO)n(CC(F)F)c2=O)nc1O[C@@H](C)C(F)(F)F [Example 90, N-(2-Chloro-4-methyl-3-pyridyl)-6-[4-(2,2-difluoroethyl)-3-(hydroxymethyl)-5-oxo-1,2,4-triazol-1-yl]-5-fluoro-2-[(1S)-2,2,2-trifluoro-1-methyl-ethoxy]pyridine-3-carboxamide]
12 | 5.7 | 46.5 | CCn1c(CO)nn(-c2nc(O[C@@H](C)C(F)(F)F)c(C(=O)Nc3cc(C)cnc3Cl)cc2F)c1=O [Example 67, (S)-N-(2-Chloro-5-methylpyridin-3-yl)-6-(4-ethyl-3-(hydroxymethyl)-5-oxo-4,5-dihydro-1H-1,2,4-triazol-1-yl)-5-fluoro-2-((1,1,1-trifluoropropan-2-yl)oxy)nicotinamide]
13 | 20.1 | 1.39 | CCn1c(CO)nn(-c2nc(O[C@@H](C)C(F)(F)F)c(C(=O)Nc3c(Cl)ncc(C)c3C)cc2F)c1=O [Example 102, N-(2-Chloro-4,5-dimethyl-3-pyridyl)-6-[4-ethyl-3-(hydroxymethyl)-5-oxo-1,2,4-triazol-1-yl]-5-fluoro-2-[(1S)-2,2,2-trifluoro-1-methyl-ethoxy]pyridine-3-carboxamide]
14 | 10.7 | 4.09 | Cc1ccnc(Cl)c1NC(=O)c1cc(F)c(-n2nc(CO)n(C(C)C)c2=O)nc1O[C@@H](C)C(F)(F)F [Example 89, N-(2-Chloro-4-methyl-3-pyridyl)-5-fluoro-6-[3-(hydroxymethyl)-4-isopropyl-5-oxo-1,2,4-triazol-1-yl]-2-[(1S)-2,2,2-trifluoro-1-methyl-ethoxy]pyridine-3-carboxamide]
15 | 144 | > 100 | CCn1c(CO)nn(-c2nc(O[C@@H](C)C(F)(F)F)c(C(=O)Nc3c(C)ccn(C)c3=O)cc2F)c1=O [Example 53, N-(1,4-Dimethyl-2-oxo-2,3-dihydro-1l4-pyridin-3-yl)-6-(4-ethyl-3-(hydroxymethyl)-5-oxo-4,5-dihydro-1H-1,2,4-triazol-1-yl)-5-fluoro-2-(((S)-1,1,1-trifluoropropan-2-yl)oxy)nicotinamide]
16 | 3.6 | 27.9 | CCn1c(CO)nn(-c2nc(O[C@@H](C)C(F)(F)F)c(C(=O)Nc3c(N(C)C)ccnc3OC)cc2F)c1=O [Example 76, (S)-N-(4-(Dimethylamino)-2-methoxypyridin-3-yl)-6-(4-ethyl-3-(hydroxymethyl)-5-oxo-4,5-dihydro-1H-1,2,4-triazol-1-yl)-5-fluoro-2-((1,1,1-trifluoropropan-2-yl)oxy)nicotinamide]
17 | 1.9 | 6.1 | CCn1c(CO)nn(-c2nc(O[C@@H](C)C(F)(F)F)c(C(=O)Nc3c(C)nsc3C)cc2F)c1=O [Example 35, (S)-N-(3,5-Dimethylisothiazol-4-yl)-6-(4-ethyl-3-(hydroxymethyl)-5-oxo-4,5-dihydro-1H-1,2,4-triazol-1-yl)-5-fluoro-2-((1,1,1-trifluoropropan-2-yl)oxy)nicotinamide]
18 | 19.2 | > 100 | CCn1c(CO)nn(-c2nc(O[C@@H](C)C(F)(F)F)c(C(=O)Nc3cc(C#N)cnc3Cl)cc2F)c1=O [Example 75, (S)-N-(2-Chloro-5-cyanopyridin-3-yl)-6-(4-ethyl-3-(hydroxymethyl)-5-oxo-4,5-dihydro-1H-1,2,4-triazol-1-yl)-5-fluoro-2-((1,1,1-trifluoropropan-2-yl)oxy)nicotinamide]
19 | 17.3 | > 100 | CCn1c(CO)nn(-c2nc(O[C@@H](C)C(F)(F)F)c(C(=O)Nc3c(C)nn(C)c3C)cc2F)c1=O [Example 55, (S)-6-(4-Ethyl-3-(hydroxymethyl)-5-oxo-4,5-dihydro-1H-1,2,4-triazol-1-yl)-5-fluoro-2-((1,1,1-trifluoropropan-2-yl)oxy)-N-(1,3,5-trimethyl-1H-pyrazol-4-yl)nicotinamide]
20 | 1.03 | 15.6 | CCn1c(CO)nn(-c2nc(O[C@@H](C)C(F)(F)F)c(C(=O)Nc3c(F)cnc(OC)c3C#N)cc2F)c1=O [Example 117, N-(3-Cyano-5-fluoro-2-methoxy-4-pyridyl)-6-[4-ethyl-3-(hydroxymethyl)-5-oxo-1,2,4-triazol-1-yl]-5-fluoro-2-[(1S)-2,2,2-trifluoro-1-methyl-ethoxy]pyridine-3-carboxamide]
21 | 3.9 | 1.8 | Cc1ccnc(Cl)c1NC(=O)c1cc(F)c(-n2nc(CF)n(C(C)C)c2=O)nc1O[C@@H](C)C(F)(F)F [Example 86, (S)-2-(5-(((2-Chloro-4-methylpyridin-3-yl)-l2-azaneyl)carbonyl)-3-fluoro-6-((1,1,1-trifluoropropan-2-yl)oxy)pyridin-2-yl)-5-(fluoromethyl)-4-isopropyl-2,4-dihydro-3H-1,2,4-triazol-3-one]
22 | 13.6 | 90 | CCn1c(CO)nn(-c2nc(O[C@@H](C)C(F)(F)F)c(C(=O)Nc3[nH]c(=O)ccc3Cl)cc2F)c1=O [Example 23, (S)-N-(3-chloro-6-oxo-1,6-dihydropyridin-2-yl)-6-(4-ethyl-3-(hydroxymethyl)-5-oxo-4,5-dihydro-1H-1,2,4-triazol-1-yl)-5-fluoro-2-((1,1,1-trifluoropropan-2-yl)oxy)nicotinamide]

Row | SMILES | EC50 [1] [nM] | EC50 [2] [nM]
23 | CCn1c(CO)nn(-c2nc(O[C@@H](C)C(F)(F)F)c(C(=O)Nc3c(F)cccc3Cl)cc2F)c1=O [Example 1, (S)-N-(2-Chloro-6-fluorophenyl)-6-(4-ethyl-3-(hydroxymethyl)-5-oxo-4,5-dihydro-1H-1,2,4-triazol-1-yl)-5-fluoro-2-((1,1,1-trifluoropropan-2-yl)oxy)nicotinamide] | 0.237 | 0.156
